Results taken from PubChem BioAssay (NCI).
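Results reflect a 48-hour exposure of cells in 96-well plates to compound at five concentrations. GI50 marks 50% less growth. TGI: total growth inhibition.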

Assays:
Experiment in all cases: NCI-60 cell line screen, 48 h
MALME-3M melanoma = test system: MALME-3M melanoma
SW-620 colon = test system: SW-620 colon
COLO 205 colon = test system: COLO 205 colon
NCI/ADR-RES ovarian = test system: NCI/ADR-RES ovarian
HS 578T breast = test system: HS 578T breast
SF-268 CNS = test system: SF-268 CNS
U251 CNS = test system: U251 CNS
OVCAR-5 ovarian = test system: OVCAR-5 ovarian
UO-31 renal = test system: UO-31 renal
A549 NSCLC = test system: A549 NSCLC

Row | SMILES | GI50 (MALME-3M melanoma) | TGI (MALME-3M melanoma) | GI50 (SW-620 colon) | TGI (SW-620 colon) | GI50 (COLO 205 colon) | TGI (COLO 205 colon) | GI50 (NCI/ADR-RES ovarian) | TGI (NCI/ADR-RES ovarian) | GI50 (HS 578T breast) | TGI (HS 578T breast) | GI50 (SF-268 CNS) | TGI (SF-268 CNS) | GI50 (U251 CNS) | TGI (U251 CNS) | GI50 (OVCAR-5 ovarian) | TGI (OVCAR-5 ovarian) | GI50 (UO-31 renal) | TGI (UO-31 renal) | GI50 (A549 NSCLC) | TGI (A549 NSCLC)
1 | Cc1cc2c(C(N)=O)cccc2n1-c1nc2c(c(NCc3ccccc3)n1)CCCN2 | 0.178 µM | 0.346 µM | 0.219 µM | 0.507 µM | 0.195 µM | 0.364 µM | 0.307 µM | 1.74 µM | 0.262 µM | 0.745 µM | 0.213 µM | 0.487 µM | 0.179 µM | 0.331 µM | 0.23 µM | 0.585 µM | 0.215 µM | 0.474 µM | 0.22 µM | 0.543 µM
2 | O=C(c1cc(-c2cc3c(cc2C(=O)N2Cc4ccccc4C[C@H]2CN2CCOCC2)OCO3)n2c1CCCC2)N(c1ccccc1)c1ccc(O)cc1 | 15.6 µM | > 100 µM | 17.3 µM | > 100 µM | 6.71 µM | > 100 µM | 6.5 µM | > 100 µM | 6.05 µM | > 100 µM | 7.65 µM | > 100 µM | 6.99 µM | > 100 µM | 5.87 µM | > 100 µM | 4.28 µM | > 100 µM | 5.15 µM | > 100 µM
3 | COc1ccc(C(=O)c2cc(OC)c(OC)c(OC)c2)cc1O | > 100 µM | > 100 µM | < 0.01 µM | > 100 µM | 1.36 µM | 13.3 µM | 0.0118 µM | > 100 µM | 0.028 µM | > 100 µM | 0.0613 µM | > 100 µM | 0.0425 µM | > 100 µM | 1.6 µM | > 100 µM | 0.296 µM | > 100 µM | 0.0717 µM | > 100 µM
4 | COc1ccc(C2=C(c3cn(C)c4ccccc34)C(=O)NC2=O)cc1OC | > 25 µM | > 25 µM | 6.96 µM | > 25 µM | 5.57 µM | > 20.3 µM | 7.99 µM | > 25 µM | 3.85 µM | > 20.6 µM | 8.85 µM | > 25 µM | 7.62 µM | > 25 µM | > 25 µM | > 25 µM | 4.83 µM | > 25 µM | 8.44 µM | > 25 µM
5 | Cc1ccc(C(=O)N/N=C/c2cccc(Oc3ccccc3)c2)cn1 | 9.14 µM | > 100 µM | 4.79 µM | > 100 µM | 5.66 µM | 38.1 µM | 4.43 µM | > 71.4 µM | 6.74 µM | > 100 µM | 34.5 µM | > 100 µM | 6.03 µM | > 100 µM | > 100 µM | > 100 µM | 19.6 µM | > 100 µM | 17 µM | > 100 µM
6 | Cc1ccc(NS(=O)(=O)c2cc(C)ccc2C)cc1 | 5.36 µM | 38.6 µM | 2.58 µM | > 100 µM | 3.49 µM | 14.7 µM | 1.38 µM | 8.95 µM | 10.9 µM | 77.7 µM | 7 µM | 35.2 µM | 4.25 µM | 23.8 µM | 15.4 µM | 72.4 µM | 12.1 µM | 72 µM | 4.78 µM | 38 µM
7 | Cc1nc(Nc2ccc(F)c(Cl)c2)sc1C(=O)O | 1.65 µM | 3.71 µM | 2.32 µM | 6.31 µM | 1.64 µM | 3.2 µM | 1.78 µM | 4.7 µM | 1.87 µM | 5.44 µM | 1.76 µM | 4.36 µM | 1.44 µM | 3.04 µM | 1.7 µM | 4.1 µM | 1.16 µM | 2.82 µM | 1.68 µM | 3.81 µM
